Legend:
VM precursor cultures [1] = assay: Real-time RT-PCR analysis of VM precursor cultures; format: cell-based, rat
Description: Briefly, ventral mesencephalic tissues were dissected from E14.5 Sprague-Dawley (SD) rats, and then dissociated enzymatically (0.1% trypsin) and mechanically. Cells were seeded into 24-well (1×10^5/cm^2) culture plates pre-coated with 20 μg/mL poly-D-lysine (Sigma-Aldrich), and were maintained in 0.5 mL/well of minimum essential medium (MEM) supplemented with 10% fetal bovine serum (FBS), 10% horse serum (HS), 1 g/L glucose, 2 mM L-glutamine, 1 mM sodium pyruvate, 100 μM nonessential amino acids, 100 U/mL penicillin, and 100 μg/mL streptomycin (all purchased from Invitrogen). Cultures were maintained at 37° C. in a humidified atmosphere of 5% CO2 and 95% air. For DA neuron differentiation, VM precursor cultures, four hours after seeding, were switched to Dulbecco's Modified Eagle's Medium (DMEM)/Ham's F12 (1:1) containing N2 supplement (Invitrogen, Carlsbad, Calif.), penicillin and streptomycin. Immediately following the switch to DMEM/F12 medium, VM precursor cells were treated with various concentration of rat UCN (from Sigma-Aldrich, St. Louis, Mo.) for the indicated periods. For neutralization of endogenous UCN bioactivity, anti-UCN antibody (15 μg/mL) (Santa Cruz Biotechnology, Santa Cruz, Calif.) was added to the VM precursor cultures.
(§1) Total RNA was extracted from VM tissues or cultured VM precursors with TRIzol® reagent (Invitrogen). One-step real-time RT-PCR analysis was performed to determine the expression of genes (Power SYBR® Green RNA-to-CT™ 1-step kit, Applied Biosystems, Foster City, Calif.). Threshold cycle (CO value for each test gene was normalized to the Ct value for the β-actin control from the same RNA preparations. The ratio of transcription of each gene was calculated as 2^−(ΔCt), where ΔCt is the difference Cr (test gene)−Ct (β-actin). The primers used herein are listed in Table 1.

VM precursor cultures [2] = assay: DA uptake assay in VM precursor cultures; format: cell-based, rat; settings: 1 μM UCN, 4 days
Description: (§2) For DA uptake assay, cells were washed twice with warm Krebs-Ringer buffer (16 mM sodium phosphate, 119 mM NaCl, 4.7 mM KCl, 1.8 mM CaCl2, 1.2 mM MgSO4, 1.3 mM EDTA and 5.6 mM glucose, pH 7.4), and then incubated with 1 μM [^3H]-dopamine(DA)(60 Ci/mmol, PerkinElmer) in Krebs-Ringer buffer at 37° C. for 20 min. After washing with ice-cold Krebs-Ringer buffer, cells were collected in 1 N NaOH and radioactivity was counted with a liquid scintillation counter. Non-specific uptake was determined in parallel wells that received both the tritiated tracer and 10 μM mazindol. The specific [^3H] DA were calculated by subtracting the amount of radioactivity obtained in the presence of mazindol from that obtained in the absence of mazindol.

[3] = test system: Nurr1-transduced cortical NPCs; assay: Real-time RT-PCR of DA phenotype genes in Nurr1-transduced cortical NPCs; format: cell-based, rat; settings: 0.5 μM UCN, 3 days
Description: TH promoter assay or lenti-virial transductions were carried out at 60%˜70% cell confluences (usually for 3 days) as described below. Cell differentiation was induced for 3 to 5 days by switching to mitogens-free DMEM/F12/N2 medium in the presence of 0.5 μM UCN. Differentiation medium was changed every other day.
(§3) For lenti-viral transduction, E13 cortical NPCs were incubated with lenti-viruses (25 multiplicity of infection) expressing Nurr1 or GFP containing poly-brene (hexadimethrine bromide, 1 μg/mL, Sigma-Aldrich) for 24 hours. After 1 day of further cell expansion in the presence of the mitogens, cells were induced to differentiate.
as §1

[4] = test system: Nurr1-transduced cortical NPCs; assay: DA uptake assay in Nurr1-transduced cortical NPCs; format: cell-based, rat; settings: 0.5 μM UCN, 4 days
Description: as §3, §2

rat TH promoter = assay: ChIP at the TH promoter with chromatin from E15.5 VM tissue of treated embryos; format: in vivo; settings: 10 μg/kg UCN i.p. every 24 h for 3 days
Description: VM precursor cultures were treated with 1 μM UCN for about 1 to 2 days. VM cells for ChIP from rat embryos, the pregnant rats on day 12.5 of gestation were intra-peritoneally injected with saline as control or 10 μg/kg UCN as treatment every 24 h for 3 days before sacrifice. The ventral mesencephalon from E15.5 embryos was dissected. Cells were cross-linked with 1% formaldehyde, and stored at −80° C. before use.
Chromatin immuno-precipitation (ChIP) assays were performed using SimpleChIP® Enzymatic Chromatin IP kit (Cell Signaling Technology, Beverly, Mass.) by the instruction of the kit. Briefly, cross-linked chromatin in the cells was enzymatic digested to generate fragments with a length of approximately 150-900 bp (1 to 5 nucleosomes). The chromatin was subjected to immuno-precipitation using the following antibodies: anti-Nurr1 (Santa Cruz), anti-acetyl histone H3 (Ac-H3), anti-HDAC1, anti-CoREST (all from Upstate Biotechnology), anti-MeCP2 (Chemicon,), anti-Foxa2 (Cell signaling Technology), anti-Pitx3, and IgG (both from Abcam). Immuno-precipitated DNA fragments were collected by protein G magnetic beads. DNA/protein complexes were eluted from the beads and reverse cross-linked at 65° C. for 2 h in the presence of proteinase K. Purified DNA were subjected to real-time PCR using primers specific to rat TH promoter loci (referring to Table 2). […]

## Urocortin [UCN]
VM precursor cultures [1]; 1 μM UCN, 4 days
  L-aromatic amino acid decarboxylase (AADC) mRNA: trends were found for increased
  dopamine transporter (DAT) mRNA: trends were found for increased
VM precursor cultures [1]; UCN
  Foxa2 mRNA expression: upregulated
  Nurr1 mRNA expression: upregulated
  Pitx3 mRNA expression: upregulated
VM precursor cultures [1]; UCN vs control medium
  TH mRNA expression: significantly elevated
  mRNA expression specific for GABAergic neurons (GAD67): no effect
  mRNA expression specific for glutamatergic neurons (VGULT1): no effect
  mRNA expression specific for serotonergic neurons (SERT): no effect
VM precursor cultures [2]
  DAT-mediated specific DA uptake: significantly enhanced
[3]
  DAT gene expression: increased gene expression
  TH gene expression: increased gene expression
  VMAT2 gene expression: increased gene expression
[4]
  DA neuronal function as assessed by DA uptake: increased DA neuronal function
Rat TH promoter
  Nurr1 binding to the TH promoter regions (NB2, NB3 and repeated CpGs): more abundant
  histone H3 acetylation in TH promoter regions: significantly increased

— patent publication US20160355782A1, “METHOD FOR ENHANCING DIFFERENTIATION OF DOPAMINERGIC NEURONS” (Buddhist Tzu Chi Medical Foundation, priority 2015, published 2016)
